The results in this text go back to ChEMBL document CHEMBL2434901, “2-Phenylbenzofuran derivatives alleviate mitochondrial damage via the inhibition of β-amyloid aggregation” (Bioorg Med Chem Lett, 2013).

In data set [1] the target is Amyloid-beta precursor protein (Homo sapiens) (UniProt P05067). As to the kind of experiment: Inhibition of amyloid beta (unknown origin) fibril formation at 10 uM by thioflavin T fluorescent dye assay.
The target is the same in data set [2]. As to the kind of experiment: Inhibition of amyloid beta (1 to 42) (unknown origin) oligomerization at 10 uM after 2 hrs by SDS-PAGE analysis.
Data set [3] has as its system HT-22. As to the kind of experiment: Neuroprotective activity in mouse HT22 cells assessed as reduction of amyloid beta (1 to 42)-induced cytotoxicity by measuring green to red fluorescence ratio using JC1 staining at 10 uM after 10 mins relative to amyloid beta (1 to 42) treated control. Type of data set: functional.
Data set [4] deals with HT-22. Description: Neuroprotective activity in mouse HT22 cells assessed as reduction of amyloid beta (1 to 42)-induced cytotoxicity by measuring green to red fluorescence ratio using JC1 staining at 10 uM after 10 mins relative to control. In kind it is functional. The settings on record: HT-22, 10 min.
A short description of data set [5]: Cytotoxicity against mouse HT22 cells assessed as cell viability at 10 uM by MTT assay relative to control. The settings on record: read-out: Activity. In kind it is cell-based, HT-22. Background: Tetrazolium assays rely on reduction of a dye to a coloured formazan, in cell work by metabolically active cells.

The structures appear in SMILES notation. Activity calls are given as the source filed them. The rule behind the calls is not given here.

Chain of Amyloid-beta precursor protein (Homo sapiens) (P05067 whole entry): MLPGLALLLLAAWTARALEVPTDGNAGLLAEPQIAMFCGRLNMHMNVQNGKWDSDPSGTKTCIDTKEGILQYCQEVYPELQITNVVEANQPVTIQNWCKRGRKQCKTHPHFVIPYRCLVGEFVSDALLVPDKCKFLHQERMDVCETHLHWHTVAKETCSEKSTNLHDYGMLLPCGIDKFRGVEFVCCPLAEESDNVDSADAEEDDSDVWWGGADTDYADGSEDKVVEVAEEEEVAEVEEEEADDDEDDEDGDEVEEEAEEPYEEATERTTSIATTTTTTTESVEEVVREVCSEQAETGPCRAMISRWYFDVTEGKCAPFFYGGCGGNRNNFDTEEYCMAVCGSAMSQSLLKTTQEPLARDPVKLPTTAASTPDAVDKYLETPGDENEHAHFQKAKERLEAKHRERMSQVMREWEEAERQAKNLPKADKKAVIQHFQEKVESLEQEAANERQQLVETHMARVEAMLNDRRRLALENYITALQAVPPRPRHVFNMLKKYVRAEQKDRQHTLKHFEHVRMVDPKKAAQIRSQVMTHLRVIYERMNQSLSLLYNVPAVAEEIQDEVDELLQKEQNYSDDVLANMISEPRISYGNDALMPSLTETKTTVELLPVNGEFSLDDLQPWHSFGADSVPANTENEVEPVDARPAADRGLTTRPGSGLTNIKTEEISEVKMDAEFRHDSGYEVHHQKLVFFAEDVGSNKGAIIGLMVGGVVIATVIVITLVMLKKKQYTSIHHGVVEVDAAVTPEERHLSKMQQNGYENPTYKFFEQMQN

In turn, `COc1cc(/C=C/C(=O)O)cc2cc(-c3cccc(N(C)C)c3)oc12` returned an inhibition in data set [1] of 34.8%. `COc1cc(/C=C/C(=O)O)cc2cc(-c3cccc(O)c3)oc12` returned an inhibition in data set [1] of 0%. The same measure, in the same setting: the result for `COc1cc(-c2cc3cc(/C=C/C(=O)O)cc(OC)c3o2)ccc1O` reads 28.4%. With `COc1cc(/C=C/C(=O)O)ccc1O`, in data set [2], the inhibition entry is “Active”. This compound also had an inhibition in data set [1] of 42.8%.

`COc1cc(/C=C/C(=O)O)cc2cc(-c3ccccc3N(C)C)oc12` came in with an inhibition in data set [1] of 3.7%. The compound `COc1cccc(-c2cc3cc(/C=C/C(=O)O)cc(OC)c3o2)c1` yielded an inhibition in data set [1] of 0%. For `COc1cc(/C=C/C(=O)O)cc2cc(-c3ccccc3O)oc12`, the inhibition in data set [1] is 18.1%. The same measure, in the same setting: the result for `O=C(O)/C=C/c1cc(O)c2oc(-c3ccccc3F)cc2c1` reads 19.7%. Turning to `COc1ccc(-c2cc3cc(/C=C/C(=O)O)cc(O)c3o2)cc1O`, the Ratio in the data set on HT-22 [3] came to 122.1. Moreover, the inhibition at 10 µM in the data set on HT-22 [4] was found to be 14.5%. Besides, the viability at 10 µM in data set [5] stood at 104%. Moreover, in data set [1], the inhibition was 43.3%. Take `CN(C)c1ccc(-c2cc3cc(/C=C/C(=O)O)cc(O)c3o2)cc1`: the Ratio in the data set on HT-22 [3] came to 123.2. Moreover, the inhibition at 10 µM in the data set with HT-22 [4] was 73.1%. In addition, in data set [5], the viability at 10 µM was 100%. For the same compound, the inhibition result in data set [2] is “Active”. In addition, the inhibition in data set [1] worked out at 70.6%. `CN(C)c1cc(-c2cc3cc(/C=C/C(=O)O)cc(O)c3o2)ccc1F` returned an inhibition in data set [1] of 16.8%. Consider `COc1cc(-c2cc3cc(/C=C/C(=O)O)cc(OC)c3o2)ccc1N(C)C`, for which the Ratio in the data set on HT-22 [3] is given as 104.2. Moreover, the viability at 10 µM in data set [5] was found to be 104%. The inhibition result in data set [2] is “Active”. In data set [1], this compound displayed an inhibition of 50.2%. `COc1cc(/C=C/C(=O)O)cc2cc(-c3ccc(F)c(N(C)C)c3)oc12` had an inhibition in data set [1] of 9.9%.

In data set [1], `O=C(O)/C=C/c1cc(O)c2oc(-c3ccc(F)cc3)cc2c1` had an inhibition of 26.7%. Regarding `COc1cc(-c2cc3cc(/C=C/C(=O)O)cc(O)c3o2)ccc1N(C)C`, in the data set on HT-22 [3], the Ratio is 113.4. Moreover, the inhibition at 10 µM in the data set on HT-22 [4] was found to be 45%. The viability at 10 µM in data set [5] was 102%. Further, in data set [2], the inhibition entry was “Active”. This compound yielded an inhibition in data set [1] of 45.9%.

In data set [1], `COc1ccc(-c2cc3cc(/C=C/C(=O)O)cc(O)c3o2)cc1N(C)C` registered an inhibition of 32.5%. On the same count and under the same terms, with `O=C(O)/C=C/c1cc(O)c2oc(-c3ccccc3)cc2c1` the figure was 16.8%; with `COc1ccc(-c2cc3cc(/C=C/C(=O)O)cc(O)c3o2)cc1`, 34.2%. `COc1ccccc1-c1cc2cc(/C=C/C(=O)O)cc(O)c2o1` returned an inhibition in data set [1] of 0%. Same read-out and setting: with `CN(C)c1cccc(-c2cc3cc(/C=C/C(=O)O)cc(O)c3o2)c1` the figure was 33.3%. Same read-out and setting: with `COc1cccc(-c2cc3cc(/C=C/C(=O)O)cc(O)c3o2)c1` the figure was 0%. For the compound `COc1cc(/C=C/C(=O)O)cc2cc(-c3ccc(N(C)C)c(F)c3)oc12`, in the data set on HT-22 [3], the Ratio was 103.1. Further, the viability at 10 µM in data set [5] is 102%. Moreover, in data set [2], the inhibition entry is “Active”. Moreover, the inhibition in data set [1] stood at 57.5%. With `COc1ccc(-c2cc3cc(/C=C/C(=O)O)cc(OC)c3o2)cc1N(C)C`, in data set [1], the inhibition turned out to be 11.7%. Turning to `COc1cc(-c2cc3cc(/C=C/C(=O)O)cc(O)c3o2)ccc1O`, the Ratio in the data set with HT-22 [3] was found to be 115.9. The viability at 10 µM in data set [5] worked out at 105%. Further, the inhibition in data set [1] came to 42.6%.

Turning to `COc1cc(/C=C/C(=O)O)cc2cc(-c3ccccc3F)oc12`, the inhibition in data set [1] worked out at 7%. `O=C(O)/C=C/c1cc(O)c2oc(-c3ccc(O)cc3)cc2c1` showed an inhibition in data set [1] of 22.4%. Take `CN(C)c1ccc(-c2cc3cc(/C=C/C(=O)O)cc(O)c3o2)cc1F`: the Ratio in the data set on HT-22 [3] worked out at 115.7. In the data set with HT-22 [4], the inhibition at 10 µM was determined as 22.3%. For the same compound, the viability at 10 µM in data set [5] amounted to 111%. Also, in data set [2], the inhibition entry was “Active”. Further, in data set [1], the inhibition came out at 49.8%.

On to `COc1cc(/C=C/C(=O)O)cc2cc(-c3ccc(O)cc3)oc12`, for which the inhibition in data set [1] came to 14.8%. In turn, `COc1cc(/C=C/C(=O)O)cc2cc(-c3ccccc3)oc12` had an inhibition in data set [1] of 0%. Still for that read-out and setting: with `O=C(O)/C=C/c1cc(O)c2oc(-c3cccc(F)c3)cc2c1` the figure was 14.3%; with `O=C(O)/C=C/c1cc(O)c2oc(-c3cccc(O)c3)cc2c1`, 0%. As to `COc1cc(/C=C/C(=O)O)cc2cc(-c3ccc(N(C)C)cc3)oc12`, in the data set on HT-22 [3], the Ratio stood at 90.3. Besides, the viability at 10 µM in data set [5] is 93.3%. Also, the inhibition entry in data set [2] was “Active”. In addition, the inhibition in data set [1] amounted to 72.6%. `COc1cc(/C=C/C(=O)O)cc2cc(-c3cccc(F)c3)oc12` had an inhibition in data set [1] of 0.4%.

`O=C(O)/C=C/c1cc(O)c2oc(-c3ccccc3O)cc2c1` yielded an inhibition in data set [1] of 28.3%.

Consider `COc1ccc(-c2cc3cc(/C=C/C(=O)O)cc(OC)c3o2)cc1`, for which the inhibition in data set [1] was 12.5%. In the case of `COc1ccc(-c2cc3cc(/C=C/C(=O)O)cc(OC)c3o2)cc1O`, the inhibition in data set [1] stood at 0%. The compound `CN(C)c1ccc(-c2cc3cc(/C=C/C(=O)O)ccc3o2)cc1` had an inhibition in data set [1] of 57%. The same measure, in the same setting: the result for `COc1ccccc1-c1cc2cc(/C=C/C(=O)O)cc(OC)c2o1` reads 0%; that for `COc1cc(/C=C/C(=O)O)cc2cc(-c3ccc(F)cc3)oc12`, 2.7%. Same read-out and setting: with `CN(C)c1ccccc1-c1cc2cc(/C=C/C(=O)O)cc(O)c2o1` the figure was 8.1%.

Usually inhibition stands for the percentage by which the read-out fell short of the control.
